The subject of the test is E. coli bacteria. In words: Antibacterial effect of HB-EGF in vitro (bacterial survival). In kind it is cell-based. Conditions: HB-EGF at 6 μM, 2×10^6 cfu/ml E. coli, 10 mM Tris, pH 7.4. The method, then:
The antibacterial effect of HB-EGF (Q99075, SEQ ID NO: 19) was evaluated in vitro. 2×10^6 cfu/ml of E. coli bacteria were incubated in 50 μl with HB-EGF at 6 μM in 10 mM Tris, pH 7.4 buffer (Tris). The difference in bacterial survival was significant for the HB-EGF treated material vs. the control (no HB-EGF present), i.e. HB-EGF does in it self posses an antibacterial effect, although less pronounced than the peptides being derived from it.

For the substance “HB-EGF: Human heparin-binding EGF-like growth factor (accession code Q99075)”, the “difference in bacterial survival vs. control” value is “significant”.

The record behind these values is patent US20090312265A1, “NOVEL ANTIMICROBIAL PEPTIDES AND USE THEREOF” (priority 2006, published 2009).
